# Measurements as given in patent publication US20230101335A1, “EX VIVO TISSUE EXPLANT AND GRAFT PLATFORM AND USES THEREOF” (Massachusetts Institute of Technology, priority 2021, published 2023).
# Read-outs that look alike come from different tables or passages of the source.
# Legend:
# [1] = system: CRC organoids engrafted in swine small intestine tissue; test: ex vivo CRC organoid-in-intestine platform, GFP+ tumor cells by flow cytometry; type: cell-based; conditions: for IC50: System: Tissue (pig ex vivo colorectal cancer platform), 24 hours drug treatment
# Caco2 cells = test: CellTiter-Glo Luminescent cell viability assay; type: cell-based; conditions: Homo sapiens, Caco-2; System: Cell (Caco2)
# HT29 cells = test: CellTiter-Glo Luminescent cell viability assay; type: cell-based; conditions: Homo sapiens, HT-29; System: Cell (HT29)
# Colo320DM cells = test: CellTiter-Glo Luminescent cell viability assay; type: cell-based; conditions: System: Cell (Colo320DM)
# HCT15 cells = test: CellTiter-Glo Luminescent cell viability assay; type: cell-based; conditions: System: Cell (HCT15)
# [2] = system: CRC organoids (APC−/TP53−/SMAD4− triple knockout); test: CellTiter-Glo cytotoxicity assay on CRISPR-engineered CRC organoids; conditions: read-out: IC50 (uM) ± SD
# P-gp = P-gp (Homo sapiens, UniProt P08183); conditions: previous work; cited from earlier work
# P-gp, sequence (P08183 whole entry): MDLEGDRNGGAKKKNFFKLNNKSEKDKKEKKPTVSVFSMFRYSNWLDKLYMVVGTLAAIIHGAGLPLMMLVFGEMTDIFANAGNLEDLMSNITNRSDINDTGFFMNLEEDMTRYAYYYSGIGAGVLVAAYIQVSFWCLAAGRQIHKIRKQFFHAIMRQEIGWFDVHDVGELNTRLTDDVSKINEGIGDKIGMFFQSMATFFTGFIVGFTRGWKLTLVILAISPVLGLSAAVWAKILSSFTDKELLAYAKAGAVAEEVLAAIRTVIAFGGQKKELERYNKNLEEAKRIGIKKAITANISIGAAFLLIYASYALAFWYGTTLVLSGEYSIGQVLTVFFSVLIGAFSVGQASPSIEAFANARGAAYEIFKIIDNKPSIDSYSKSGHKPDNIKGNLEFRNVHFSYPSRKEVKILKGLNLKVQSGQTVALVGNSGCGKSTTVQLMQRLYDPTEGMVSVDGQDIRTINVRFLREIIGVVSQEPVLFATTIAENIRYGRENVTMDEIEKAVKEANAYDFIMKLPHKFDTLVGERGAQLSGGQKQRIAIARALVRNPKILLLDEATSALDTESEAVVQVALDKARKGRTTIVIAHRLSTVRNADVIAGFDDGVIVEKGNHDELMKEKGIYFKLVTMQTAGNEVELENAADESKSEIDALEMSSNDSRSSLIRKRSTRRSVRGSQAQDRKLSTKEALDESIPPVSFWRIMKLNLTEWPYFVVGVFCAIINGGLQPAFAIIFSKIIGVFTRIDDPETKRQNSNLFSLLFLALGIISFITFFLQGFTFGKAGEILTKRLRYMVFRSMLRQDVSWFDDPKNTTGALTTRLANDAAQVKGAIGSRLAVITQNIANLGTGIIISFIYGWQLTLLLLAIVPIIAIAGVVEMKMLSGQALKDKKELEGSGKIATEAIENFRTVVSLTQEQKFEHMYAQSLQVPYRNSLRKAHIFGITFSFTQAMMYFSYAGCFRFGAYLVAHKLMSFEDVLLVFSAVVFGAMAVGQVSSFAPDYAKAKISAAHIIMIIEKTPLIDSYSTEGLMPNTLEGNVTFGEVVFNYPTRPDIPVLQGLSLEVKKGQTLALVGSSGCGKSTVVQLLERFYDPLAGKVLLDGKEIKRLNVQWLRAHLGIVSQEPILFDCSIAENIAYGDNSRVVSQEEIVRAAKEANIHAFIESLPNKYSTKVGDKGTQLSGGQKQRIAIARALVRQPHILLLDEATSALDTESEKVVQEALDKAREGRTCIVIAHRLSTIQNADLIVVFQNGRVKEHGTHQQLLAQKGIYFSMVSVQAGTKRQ
molecule,measurement,setting,value
"COc1cccc2c1C(=O)c1c(O)c3c(c(O)c1C2=O)C[C@@](O)(C(=O)CO)C[C@@H]3O[C@H]1C[C@H](N)[C@H](O)[C@H](C)O1 [Doxirubicine, doxorubicin]",IC50,[1]; Sus scrofa,0.739 ± 0.082 µM
same,IC50,Caco2 cells,2.85 ± 0.712 µM
same,IC50,HT29 cells,3.88 ± 2.13 µM
same,IC50,"Colo320DM cells; Homo sapiens, COLO 320DM",6.99 ± 1.23 µM
same,IC50,"HCT15 cells; Homo sapiens, HCT-15",1.51 ± 0.226 µM
same,IC50,[2]; Sus scrofa,10.1 ± 2.33 µM
"CS(=O)(=O)CCNCc1ccc(-c2ccc3ncnc(Nc4ccc(OCc5cccc(F)c5)c(Cl)c4)c3c2)o1 [Lapatinib, lapatinib]",IC50,[1]; Sus scrofa,0.499 ± 0.087 µM
same,IC50,[2]; Sus scrofa,0.39 ± 0.21 µM
"O=C1[O][Pt]2([NH][C@@H]3CCCC[C@H]3[NH]2)[O]C1=O [Oxiliplatin, oxaliplatin]",IC50,[1],8.61 ± 3.38 µM
same,IC50,Colo320DM cells,10.5 ± 1.71 µM
same,IC50,HCT15 cells,15.5 ± 4.99 µM
same,IC50,[2]; System: Organoid (without transplantation into tissue),18 ± 4.72 µM
vitamin A,potency of irinotecan in combination with predicted P-gp modulator,"[1]; ex vivo CRC platform, FIGS. 8B-8C, one-way ANOVA p<0.05",significantly increased the potency irinotecan
same,P-gp inhibition and drug uptake,P-gp,inhibit P-gp and increase drug uptake
